This assay concerns PD fibroblasts. In words: Mitophagy at 14 hrs after CCCP in PD fibroblasts (Western blotting and immunocytochemistry). The format is cell-based, human. As to conditions: 14 hrs after CCCP treatment. Here is the method:
FIG. 8. Related to FIG. 2-4. Miro1 Reducer in Human Cell and Fly Models. (A) Fibroblasts from Healthy-1 and PD-2 were treated, lysed, and blotted as indicated. Band intensities are normalized to those of GAPDH from the same blots and compared to “Healthy-1, no treatment”. n=4 independent experiments. (B) Fibroblasts from PD-2 were treated and immunostained as indicated. The intensity was quantified for each cell across 264-320 cells from 3 independent experiments, compared to “no treatment”. (C) Fibroblasts were treated, immunoprecipitated (IPed) with anti-Miro1, and blotted as indicated. Similar results were observed twice. (D) Similar as in (C), fibroblasts were treated as indicated, and IPed with anti-Miro1. The GTPase activity of the IPed Miro1 protein was measured as described in Method. […] The MitoSox intensity was quantified for each cell across 106-161 cells from 3 coverslips. […] The TMRM intensity was measured for each cell across 48-60 cells from 3 independent experiments, and expressed as a fraction of the mean of “Healthy-1, no treatment”. […] The movement (the intensity of non-yellow) was quantified for each cell as described in (Tsai et al., 2014) across 22-31 cells from 3 transfections. […] (1) Left: The percentage of TH-positive iPSC-derived neurons out of total cells (Dapi-positive) is calculated after immunocytochemistry under 20× as described in FIG. 3. […]
Background: Immunoblotting shows a protein as a band on a membrane.

The structures appear in SMILES notation.

With `O=C(Nc1ccc(Nc2cc(-n3ccnc3)ncn2)cc1)Nc1cccc(F)c1` [Miro1 Reducer], the delayed mitophagy phenotype result is given as “rescued the delayed mitophagy phenotype”.

The values are drawn from patent publication US12544375B2, “Small molecule therapeutic for parkinson's disease paired with a biomarker of therapeutic activity” (The Board of Trustees of the Leland Stanford Junior …, priority 2019, dated 2026).
